Data taken from paper PMC9389588, “1,6-epi-Cyclophellitol Cyclosulfamidate Is a Bona Fide Lysosomal α-Glucosidase Stabilizer for the Treatment of Pompe Disease” (Journal of the American Chemical Society, 2022).

Molecular target: T1, sucrase-isomaltase (SI) (Mus musculus, UniProt B5THE3)
T1 construct: cABPP in mouse intestine homogenates; from tissue; host or cells: duodenum of wild type mice
Test: competitive ABPP in mouse intestine homogenates, SI
Assay type: biochemical
Details: mouse duodenum extracts; 0-100 μM; 30 min 37 °C
Protocol: Inhibition of gastrointestinal α-glucosidases with antidiabetic drugs has been related to undesired effects, including flatulence, diarrhea, and abdominal pain. Cyclosulfamidate 4 inhibits SI and MGAM but does so about a 100-fold less potently than it inhibits rhGAA or GANAB, and we conclude that it has a more beneficial therapeutic window in this regard compared to NB-DNJ 2.
Figure 2 Competitive ABPP (cABPP) in mouse intestine homogenates. […]
After preincubation, 25 μL of E+I mixture was added to a 96 wells plate and 100 μL substrate solution in the appropriate buffer was subsequently added. GAA activity was measured using final concentrations of 47 nM enzyme (Myozyme) and 3.0 mM 4-MU-α-D-glucopyranoside, for 30 minutes at 37 ℃. GANAB activity was measured using wt fibroblasts and 2.4 mM 4-MU-α-D-glucopyranoside, for 2 h at 37 ℃. GBA1 activity was measured using final concentrations of 0.7 nM enzyme (Cerezyme) and 3.0 mM 4-methylumbeliferone(4-MU)-β-D-glucopyranoside, for 30 min at 37 ℃. GBA2 residual activity was measured using cellular homogenates of HEK293T over-expressing GBA2 pre-incubated for 30 min with a GBA1 inhibitor (1 µM 37 (ME656), see Figure S1 for chemical structure), and further incubation with 3.0 mM 4-methylumbeliferone(4MU)-β-D-glucopyranoside […]

T1 sequence (B5THE3 1-1818): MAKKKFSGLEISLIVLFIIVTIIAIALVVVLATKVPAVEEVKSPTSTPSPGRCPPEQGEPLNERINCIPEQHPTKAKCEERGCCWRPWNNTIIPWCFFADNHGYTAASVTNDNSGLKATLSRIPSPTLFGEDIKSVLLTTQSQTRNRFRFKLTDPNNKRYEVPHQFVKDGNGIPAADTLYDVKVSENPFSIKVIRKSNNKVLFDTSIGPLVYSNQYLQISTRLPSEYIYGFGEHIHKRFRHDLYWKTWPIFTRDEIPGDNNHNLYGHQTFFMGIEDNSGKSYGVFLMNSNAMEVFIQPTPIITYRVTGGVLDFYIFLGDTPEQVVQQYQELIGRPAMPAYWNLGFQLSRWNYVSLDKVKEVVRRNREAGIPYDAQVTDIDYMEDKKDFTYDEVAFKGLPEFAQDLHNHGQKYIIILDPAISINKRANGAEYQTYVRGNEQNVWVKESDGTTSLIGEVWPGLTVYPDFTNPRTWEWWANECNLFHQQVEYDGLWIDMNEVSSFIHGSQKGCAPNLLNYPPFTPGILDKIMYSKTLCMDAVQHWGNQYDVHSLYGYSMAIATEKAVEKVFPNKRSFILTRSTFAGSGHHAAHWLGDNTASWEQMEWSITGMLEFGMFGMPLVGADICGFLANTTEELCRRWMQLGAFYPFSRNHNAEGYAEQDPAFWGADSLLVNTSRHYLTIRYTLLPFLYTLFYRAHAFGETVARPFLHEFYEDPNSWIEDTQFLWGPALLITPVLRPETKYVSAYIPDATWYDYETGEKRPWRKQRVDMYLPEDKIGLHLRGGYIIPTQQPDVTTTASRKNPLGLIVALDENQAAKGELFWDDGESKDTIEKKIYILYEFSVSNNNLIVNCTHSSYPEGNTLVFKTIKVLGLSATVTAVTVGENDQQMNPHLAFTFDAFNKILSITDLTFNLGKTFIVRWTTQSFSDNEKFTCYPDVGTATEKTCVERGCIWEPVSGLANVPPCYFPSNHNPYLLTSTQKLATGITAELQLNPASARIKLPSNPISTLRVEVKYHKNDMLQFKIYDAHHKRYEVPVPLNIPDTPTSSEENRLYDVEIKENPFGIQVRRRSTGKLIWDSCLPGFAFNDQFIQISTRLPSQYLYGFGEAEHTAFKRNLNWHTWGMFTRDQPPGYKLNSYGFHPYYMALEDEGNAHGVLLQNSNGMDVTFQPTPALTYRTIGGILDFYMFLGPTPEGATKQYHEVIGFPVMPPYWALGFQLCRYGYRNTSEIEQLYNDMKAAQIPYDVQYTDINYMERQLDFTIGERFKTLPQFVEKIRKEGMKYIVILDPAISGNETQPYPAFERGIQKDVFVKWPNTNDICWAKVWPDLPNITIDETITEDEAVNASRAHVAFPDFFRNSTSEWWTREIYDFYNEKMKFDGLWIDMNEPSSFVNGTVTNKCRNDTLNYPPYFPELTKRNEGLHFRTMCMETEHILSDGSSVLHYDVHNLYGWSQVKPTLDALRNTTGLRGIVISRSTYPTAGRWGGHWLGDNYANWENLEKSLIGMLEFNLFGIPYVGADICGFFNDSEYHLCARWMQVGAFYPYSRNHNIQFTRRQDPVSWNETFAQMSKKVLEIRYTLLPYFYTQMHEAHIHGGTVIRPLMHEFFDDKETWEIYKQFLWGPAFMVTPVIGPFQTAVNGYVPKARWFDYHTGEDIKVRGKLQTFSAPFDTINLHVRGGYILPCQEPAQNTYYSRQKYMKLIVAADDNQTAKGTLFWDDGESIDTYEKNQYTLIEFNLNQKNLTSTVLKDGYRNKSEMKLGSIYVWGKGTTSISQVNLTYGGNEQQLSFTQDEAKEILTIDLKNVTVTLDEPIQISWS

Structure (SMILES): O=S1(=O)N[C@@H]2[C@H](O)[C@@H](O)[C@H](O)[C@@H](CO)[C@@H]2O1 [compound 4, 1,6-epi-cyclophellitol cyclosulfamidate]
- inhibition of SI by cABPP, in words: inhibit
